# Counter-ions that a name gives are not always drawn. Like-named read-outs stand apart in the source and are kept apart here. Marks after values point to notes of the source that are not given here.
# Tests used:
# [1] = test system: hiPSC-neurons; assay: HCA of synapses; assay type: cell-based, human
# [2] = test system: hiPSC-neurons; assay: Calcium KIC assay; assay type: cell-based, human; conditions: each ARV at 10 μM, 7 days; for Calcium transient activity compared to DMSO (traces): Fig. 5, Fig. S1; for Percent active hiPSC-neurons, reduction vs DMSO: Fig. 6D; for Number of active neurons with detectable increases in calcium fluorescence: six wells per condition, Fig. 5 (DMSO: 1034 cells)
# [3] = test system: hiPSC-neurons; conditions: for Neuronal Viability (percentage of live neuronal nuclei), reduction vs DMSO / Neuronal Viability, change vs DMSO: Fig. 1B; for Total Neurite Length (per cm^2 image area), reduction vs DMSO: Fig. 1C; for Neuronal Viability, reduction vs DMSO: Fig. 2D
# [4] = cited from earlier work; for Plasma concentrations reach steady state by day: daily dosage, ref Min, et al.; for Cmax: read-out: Plasma Cmax, ref Food and Drug Administration New Drug Applications for each antiretroviral
# [5] = test system: primary embryonic rat neurons; conditions: ref Stern, et al., 2018, cited from earlier work; for Number of MAP2+ neurons: 10 μM
# [6] = test system: hNPCs; assay: hNPC viability; assay type: cell-based, human; conditions: Fig. 7A
# [7] = test system: hNPCs; assay: Microscopic Imaging of Epigenetic Landscapes; assay type: cell-based, human; conditions: for Samples classified correctly by discriminant analysis: H3K27me3/H3K27ac and H3K9me3/H3K4me1 confusion matrices, Fig. 7D, E
# [8] = test system: murine NPCs; conditions: ref Demir & Laywell, 2015; P. Xu, et al., 2017; cited from earlier work
# [9] = test system: hiPSC-microglia; conditions: cited from earlier work
# [10] = lower concentrations (0.1, 1 μM), 7 days
# [11] = 25 μM (inhibiting myosin activity)
Compound,"Synapses/Neurite Length, reduction vs DMSO ([1]; 0.1 μM, 7 days, Fig. 3C) [%]","Synapse Density, reduction vs DMSO ([1]; 1 μM, 7 days, Fig. 3B) [%]","Synapses/Neurite Length, reduction vs DMSO ([1]; 1 μM, 7 days, Fig. 3C)","Synapses/Neurite Length, reduction vs DMSO ([1]; 10 μM, 7 days, Fig. 3C)","Synapse Density, percent difference between ARV treatment and DMSO control ([1]; each ARV at 10 μM, 7 days)","Mean Peak Amplitude, percent difference between ARV treatment and DMSO control [2]","Percent Active, percent difference between ARV treatment and DMSO control [2]",Number of active neurons with detectable increases in calcium fluorescence [2] [cells],"Neuronal Viability (percentage of live neuronal nuclei), reduction vs DMSO ([3]; 10 μM, 7 days) [%]","Total Neurite Length (per cm^2 image area), reduction vs DMSO ([3]; 10 μM, 7 days) [%]","Total Neurite Length, percent difference between ARV treatment and DMSO control ([3]; each ARV at 10 μM, 7 days)","Neuronal Viability, reduction vs DMSO ([3]; each ARV at 10 μM, 7 days) [%]",Cmax [4] [µM],"Synapse Density, reduction vs DMSO ([1]; 10 μM, 7 days, Fig. 3B) [%]",other results
"C[C@@H]1CCO[C@H]2Cn3cc(C(=O)NCc4ccc(F)cc4F)c(=O)c(O)c3C(=O)N12 [DTG, dolutegravir]",20,30,30%,no effect,−10(NS) percent,−35(NS) percent,−30 ^* percent,716,30,20,−14(NS) percent,20,8,,"Event Frequency, percent difference between ARV treatment and DMSO control [2]: −10(NS) percent; Calcium transient activity compared to DMSO (traces) [2]: less calcium transient activity compared to DMSO; Percent active hiPSC-neurons, reduction vs DMSO [2]: 30%; Neurite Length per Neuron, increase vs DMSO ([3]; 10 μM, 7 days, Fig. 1D): 20%; Plasma concentrations reach steady state by day ([4]; healthy volunteers, 2010): ≤ 5 days; Plasma concentrations reach steady state by day ([4]; people with HIV, 2011): ≤ 7 days"
"COc1cc2c(cc1Cc1cccc(Cl)c1F)c(=O)c(C(=O)O)cn2[C@H](CO)C(C)C [EVG, elvitegravir]",25,,no effect,,−90 ^*** percent,−55 ^** percent,−90 ^*** percent,31,65,80,−85 ^*** percent,80,,75,"Synapse Density (synapses per cm^2 imaging area), reduction vs DMSO ([1]; 0.1 μM, 7 days, Fig. 3B): 20%; Synapses/Neurite Length, increase vs DMSO ([1]; 10 μM, 7 days, Fig. 3C): 20%; Synapse Density, reduction vs DMSO ([1]; each ARV at 10 μM, 7 days, Fig. 4C): 90%; Event Frequency, percent difference between ARV treatment and DMSO control [2]: −40 ^** percent; Calcium transient activity compared to DMSO (traces) [2]: virtually inactive; Percent active hiPSC-neurons, reduction vs DMSO [2]: 90%; Calcium transient event frequency, reduction vs DMSO ([2]; Fig. 6E): 40%; Calcium transient mean peak amplitude, reduction vs DMSO ([2]; Fig. 6F): 55%; Neurite Length per Neuron, lower than DMSO ([3]; 10 μM, 7 days, Fig. 1D): 50%; Total Neurite Length, reduction vs DMSO ([3]; each ARV at 10 μM, 7 days, Fig. 2E): 85%; Neuronal Viability, change vs DMSO [3, 10]: did not observe changes; Number of MAP2+ neurons ([5]; four days): significantly reduced the number of MAP2+ neurons; Number of MAP2+ neurons ([5]; two days): not two days; Neurotoxicity ([5]; 0.1 and 1 μM): not neurotoxic"
"Nc1nc(=O)n([C@@H]2CS[C@H](CO)O2)cc1F [FTC, emtricitabine]",20,20,20%,30%,−10(NS) percent,−10(NS) percent,,1003,,,−6(NS) percent,,7,30,"Neuronal Viability, change vs DMSO ([3]; any tested concentration (0.1, 1, 10 μM), 7 days): did not observe changes"
CCCc1cc(C)[nH]c(=O)c1CNC(=O)c1cc(-c2ccnc(N3CCN(C)CC3)c2)cc2c1cnn2C(C)C [GSK343],,,,,,,,,,,,,,,"hNPC viability, reduction vs DMSO ([6]; 10 μM, three days): 50%; Samples classified correctly by discriminant analysis ([7]; 10 μM): 100%"
O=C(CCCCCCC(=O)Nc1ccccc1)NO [SAHA],,,,,,,,,,,,,,,"hNPC viability, reduction vs DMSO ([6]; 3 μM): 45%; Samples classified correctly by discriminant analysis ([7]; 3 μM): 100%"
"CC(C)OC(=O)OCOP(=O)(CO[C@H](C)Cn1cnc2c(N)ncnc21)OCOC(=O)OC(C)C [TDF, tenofovir disoproxil fumarate]",20,30,25%,20%,,+20(NS) percent,−10(NS) percent,729,35,20,,30,0.6,40,"hNPC viability, reduction vs DMSO ([6]; 10 μM, three days): 30%; Effect on epigenetic landscape (H3K27me3/H3K27ac and H3K9me3/H3K4me1 MIEL analysis) ([7]; 10 μM, three days, Fig. 7B–E): altered the epigenetic landscape; Neuronal Viability, change vs DMSO [3, 10]: did not observe changes; Viability of murine NPCs [8]: reduce the viability"
O=C1Nc2ccc(Cl)cc2[C@@](C#CC2CC2)(C(F)(F)F)O1 [efavirenz],,,,,,,,,,,,,,,Inflammation in hiPSC-microglia [9]: increased inflammation; Phagocytosis in hiPSC-microglia [9]: reduced phagocytosis
C[C@@H]1CCN(C(=O)CC#N)C[C@@H]1N(C)c1ncnc2[nH]ccc12 [tofacitinib],,,,,,,,,,,,,,,"hNPC viability, effect ([6]; 1 μM): not affected"
Cc1cn([C@H]2C[C@H](N=[N+]=[N-])[C@@H](CO)O2)c(=O)[nH]c1=O [zidovidine],,,,,,,,,,,,,,,Viability of murine NPCs [8]: reduce the viability
para-nitroblebbistatin,,,,,,,,,,,,,,,"Synapse Density, reduction vs DMSO ([1]; 25 μM, 7 days, Fig. 3B): 30%; Synapses/Neurite Length, reduction vs DMSO ([1]; 25 μM, 7 days, Fig. 3C): 20%; Synapse Density, increase vs DMSO ([1]; 25 μM, one day, Fig. 4A): 20%; Neurite length, effect [3, 11]: did not affect; Neuron viability, effect [3, 11]: did not affect; Total Neurite Length, increase vs DMSO ([3]; 25 μM, one day, Fig. 2B): 15%"

# Source: PMC9103414 (Journal of pharmacological and toxicological methods, 2022)
